The text below walks through data of article PMC8469489, “Effect of Lactic Acid Bacteria on the Pharmacokinetics and Metabolism of Ginsenosides in Mice” (Pharmaceutics, 2021).

For data set [1], the system named is lactic acid bacteria (LAB). Description: Incubation of single ginsenoside with LAB (formation rate of metabolite ginsenoside). The note with it: 7 days, 37 °C, MRS broth. It counts as in vitro ADME. How it is done:
To compare the involvement of LAB on individual ginsenoside, an aliquot (10 μL) of each ginsenoside stock solution (10 mM in methanol) was mixed with autoclaved MRS broth (550 mg/10 mL in distilled water) and added 2 g of LAB (contained 1 billion CFU). Then, the mixture was incubated for 7 days in a shaking incubator at 37 °C and 300 rpm. For the analysis of ginsenosides, 0.2 mL aliquot of incubation mixture was collected every 24 h for 7 days. The incubation medium was diluted 100-fold with distilled water and stored at −80 °C. For the ginsenoside analysis, 200 μL of an IS solution (0.05 ng/mL berberine in methanol) was added to 30 μL of 100-fold diluted samples.

A short description of data set [2]: Recovery of ginsenosides from urine and feces for 48 h after RGE, amoxicillin vs control. To be noted: for Fecal recovery, change by the amoxicillin treatment: feces 48 h after single oral RGE 2 g/kg, vs control; for Ginsenosides identified in urine: urine 48 h after single oral RGE 2 g/kg.
Procedure: Aliquots (200 μL) of an IS (0.05 ng/mL berberine in methanol) were added to 30 μL of plasma or urine samples. Aliquots (600 μL) of an IS methanol solution containing 0.05 ng/mL berberine were added to 100 μL of 10% feces homogenate samples. […] After centrifugation, 200 μL of the supernatant was transferred to a clean tube and dried under a nitrogen stream at 40 °C. The residue was reconstituted using 100 μL of 70% methanol supplemented with 0.1% formic acid, and a 10-μL aliquot was injected into the LC–MS/MS system.
The nature of data set [3]: Pharmacokinetics of ginsenosides after single oral RGE after amoxicillin with or without repeated LAB treatment. To be noted: single oral RGE 2 g/kg; for AUC: AUC 0 to 48 h.
Procedure: (§1) Mice received amoxicillin (n = 12, 20 mg/kg, dissolved in water at 2 mL/kg, twice daily) for 3 days via oral gavage. From the 4th day, mice from the LAB + amoxicillin treatment group received LAB (2 g/kg suspended in water at 2 mL/kg, once daily) for 7 days via oral gavage. Mice from the amoxicillin treatment group received water (2 mL/kg, once daily) for 7 days via oral gavage.
Blood sampling was performed using a sparse sampling method via the right or left retro-orbital vein under isoflurane anesthesia at 0, 2, 4, and 8 h after the RGE administration through the heparinized capillary tube. […] After centrifugation of the blood samples at 10,000× g for 1 min, 30 μL aliquots of plasma were stored at −80 °C until the analysis of the ginsenosides. Subsequent protocols were identical to the amoxicillin treated group.
Pharmacokinetic parameters were calculated using WinNonlin (version 5.1, Pharsight, Mountain View, CA, USA) by a non-compartmental analysis.
Data set [4] can be described thus: Recovery of ginsenosides from urine and feces for 48 h after RGE, amoxicillin with or without LAB. The note with it: feces 48 h after single oral RGE 2 g/kg; Amoxicillin + LAB vs amoxicillin.
Procedure: as §1
For data set [5], the system named is lactic acid bacteria (LAB). Description: In vitro RGE fermentation with LAB. The note with it: 7 days incubation.
The nature of data set [6]: Pharmacokinetics of ginsenosides after single oral RGE with or without amoxicillin treatment. To be noted: single oral RGE 2 g/kg; for AUC: AUC 0 to 48 h. Type of data set: in vivo, mice. The procedure: Male ICR mice (7-weeks-year-old, 30–35 g) were purchased from Samtako Co. (Osan, Kyunggi-do, Korea). Animals were acclimatized for 1 week in an animal facility at Kyungpook National University. Food and water were available ad libitum.
Before blood sampling, mice were anesthetized using isoflurane (isoflurane vaporizer to 2% with oxygen flow at 0.8 L/min) for 5 min.

On the set-up of data set [7]: method as in PMID 32023909. The note with it: cited from earlier work.
Setting [8] is: Amoxicillin 3 days pretreatment.
[9] abbreviates: Amoxicillin 3 days then water 7 days.

As a reminder, the AUC is the area under the concentration-time curve, a measure of exposure. By Cmax is commonly meant the peak of the concentration-time curve. The term MRT denotes the average time that molecules of a dose stay in the body. By Tmax is commonly meant the time at which the peak concentration occurs.

Take `CC(C)=CCC[C@](C)(O[C@@H]1O[C@H](CO)[C@@H](O)[C@H](O)[C@H]1O)[C@H]1CC[C@]2(C)[C@@H]1[C@H](O)C[C@@H]1[C@@]3(C)CC[C@H](O[C@@H]4O[C@H](CO)[C@@H](O)[C@H](O)[C@H]4O)C(C)(C)[C@@H]3CC[C@]12C` [GF2]: in data set [1], the “Metabolite formation on incubation of single ginsenoside with LAB” value (from here on “Metabolite formation on incubation”) is “the highest among the ginsenoside formation rate”. Moreover, the “Fecal recovery, change by the amoxicillin treatment” value in data set [2] is on record as “significantly decreased”. Moreover, the “Plasma exposure / pharmacokinetic parameters, LAB treatment compared with amoxicillin group” value in data set [3] is given as “increased”. In addition, the “Fecal recovery, change by LAB treatment” value in data set [4] is on record as “remained similar”. Also, in data set [5], the “Alteration of ginsenoside by fermentation of RGE with LAB” value (“Alteration of ginsenoside” for short) was “gradual decrease”.

`CC(C)=CCC[C@](C)(O[C@@H]1O[C@H](CO[C@@H]2O[C@H](CO)[C@@H](O)[C@H](O)[C@H]2O)[C@@H](O)[C@H](O)[C@H]1O)[C@H]1CC[C@]2(C)[C@@H]1[C@H](O)C[C@@H]1[C@@]3(C)CC[C@H](O[C@@H]4O[C@H](CO)[C@@H](O)[C@H](O)[C@H]4O[C@@H]4O[C@H](CO)[C@@H](O)[C@H](O)[C@H]4O)C(C)(C)[C@@H]3CC[C@]12C` [GRb1, 20(S)-ginsenosides Rb1]: the AUC in data set [6] (male, ICR, mouse, plasma, po, 2 g/kg, Amoxicillin 3 days pretreatment, read-out: AUC) is 926 ± 439 ng·h/mL; in data set [6] (male, ICR, mouse, plasma, po, 2 g/kg, Control, plasma, n = 3, read-out: AUC), 896 ± 81.3 ng·h/mL; in data set [3] (male, ICR, mouse, plasma, po, 2 g/kg, AUC, Amoxicillin 3 days then water 7 days), 752 ± 478 ng·h/mL; in data set [3] (male, ICR, mouse, plasma, po, 2 g/kg, AUC, Amoxicillin + LAB (LAB 2 g/kg once daily 7 days)), 622 ± 164 ng·h/mL. For the same compound, the Cmax worked out at 28.2 ± 12.9 ng/mL in data set [6] (male, ICR, mouse, plasma, po, 2 g/kg, Amoxicillin 3 days pretreatment, read-out: Cmax); 41.3 ± 14.3 ng/mL in data set [6] (male, ICR, mouse, plasma, po, 2 g/kg, Control, plasma, read-out: Cmax); 23.7 ± 11.6 ng/mL in data set [3] (male, ICR, mouse, plasma, po, 2 g/kg, Cmax, Amoxicillin 3 days then water 7 days); 26.2 ± 4.6 ng/mL in data set [3] (male, ICR, mouse, plasma, po, 2 g/kg, Cmax, Amoxicillin + LAB). Moreover, the Half-Life was 21.7 ± 3.6 h in data set [6] (male, ICR, mouse, plasma, po, 2 g/kg, Amoxicillin 3 days pretreatment, read-out: Half-life (converted)); 25.9 ± 4.7 h in data set [6] (male, ICR, mouse, plasma, po, 2 g/kg, Control, plasma, read-out: Half-Life (converted)); 20.1 ± 2.2 h in data set [3] (male, ICR, mouse, plasma, po, 2 g/kg, Half-Life, Amoxicillin 3 days then water 7 days); 16.2 ± 0.9 h in data set [3] (male, ICR, mouse, plasma, po, 2 g/kg, Half-life, Amoxicillin + LAB). Further, the MRT in data set [6] (male, ICR, mouse, plasma, po, 2 g/kg, Amoxicillin 3 days pretreatment, read-out: MRT) was 19.3 ± 1.4 h; in data set [6] (male, ICR, mouse, plasma, po, 2 g/kg, Control, plasma, read-out: MRT), 16.3 ± 2.7 h; in data set [3] (male, ICR, mouse, plasma, po, 2 g/kg, MRT, Amoxicillin 3 days then water 7 days), 18.6 ± 1.6 h; in data set [3] (male, ICR, mouse, plasma, po, 2 g/kg, MRT, Amoxicillin + LAB) it was 16.9 ± 1 h. Moreover, the Tmax in data set [6] (male, ICR, mouse, plasma, Amoxicillin 3 days pretreatment, read-out: Tmax) was determined as 8 h; in data set [3] (male, ICR, mouse, plasma, po, 2 g/kg, Tmax, Amoxicillin 3 days then water 7 days), 3.3 ± 1.2 h; in data set [3] (male, ICR, mouse, plasma, po, 2 g/kg, Tmax, Amoxicillin + LAB) it was 4.7 ± 3.1 h. In addition, the “Plasma concentrations, amoxicillin treatment compared to the control group” value in data set [6] is given as “not significantly affected”. The “Fecal recovery, change by the amoxicillin treatment” value in data set [2] is listed as “increased”. Further, in data set [2], the “Ginsenosides identified in urine” value is “identified in urine”. Moreover, the “Ratio of liver AUC to plasma AUC” value in data set [7] is < 0.2. Moreover, the “Detection in mouse plasma following repeated LAB administration in addition to amoxicillin” value in data set [3] is recorded as “detected”. For the same compound, the “Plasma exposure / pharmacokinetic parameters, LAB treatment compared with amoxicillin group” value in data set [3] was “not different”. Moreover, the “Fecal recovery, change by LAB treatment” value in data set [4] is “significantly decreased”. The “Alteration of ginsenoside” value in data set [5] is on record as “most significant decrease”.

For the compound `CC(C)=CCC[C@](C)(O[C@@H]1O[C@H](CO[C@@H]2OC[C@H](O)[C@H](O)[C@H]2O)[C@@H](O)[C@H](O)[C@H]1O)[C@H]1CC[C@]2(C)[C@@H]1[C@H](O)C[C@@H]1[C@@]3(C)CC[C@H](O[C@@H]4O[C@H](CO)[C@@H](O)[C@H](O)[C@H]4O[C@@H]4O[C@H](CO)[C@@H](O)[C@H](O)[C@H]4O)C(C)(C)[C@@H]3CC[C@]12C` [GRb2], the “Metabolite formation on incubation” value in data set [1] is “produced GRg3 with the highest formation rate”. Also, in data set [6] (setting [8]), the Cmax is on record as 10.3 ± 4.6 ng/mL, the Half-Life is 25.1 ± 2.7 h, the MRT came out at 21.4 ± 1.6 h and the Tmax stood at 13.3 ± 9.2 h. For the same compound, the AUC in data set [6] (setting [8]) is 391.5 ± 192 ng·h/mL. Also, in data set [6] (Control, plasma), the Cmax was 12.5 ± 2.1 ng/mL, the Half-Life was 24.6 ± 6.7 h, the mean residence time (MRT) is recorded as 19.4 ± 1.6 h and the Tmax is given as 8.0 ± 0.0 h. The AUC in data set [6] (Control, plasma, n = 3) came out at 361.4 ± 74.3 ng·h/mL. Also, the “Plasma concentrations, amoxicillin treatment compared to the control group” value in data set [6] is recorded as “not significantly affected”. For the same compound, in data set [2], the “Fecal recovery, change by the amoxicillin treatment” value is recorded as “increased” and the “Ginsenosides identified in urine” value is “identified in urine”. For the same compound, the “Ratio of liver AUC to plasma AUC” value in data set [7] was < 0.2. For the same compound, in data set [3] (setting [9]), the Cmax was 10.9 ± 5.2 ng/mL, the Half-Life amounted to 19.2 ± 2.3 h, the MRT worked out at 20.2 ± 1.7 h and the Tmax was 4.0 ± 0.0 h. Besides, the exposure (AUC) in data set [3] (setting [9]) was 385.9 ± 243.6 ng·h/mL. Besides, the AUC in data set [3] (Amoxicillin + LAB (LAB 2 g/kg once daily 7 days)) turned out to be 419.2 ± 108.6 ng·h/mL. In data set [3] (Amoxicillin + LAB), the Cmax turned out to be 15.1 ± 3.4 ng/mL, the Half-Life is 21.6 ± 1.7 h, the MRT was determined as 18.1 ± 0.9 h and the Tmax came to 8.0 ± 0.0 h. Moreover, in data set [3], the “Detection in mouse plasma following repeated LAB administration in addition to amoxicillin” value is recorded as “detected” and the “Plasma exposure / pharmacokinetic parameters, LAB treatment compared with amoxicillin group” value is reported as “not different”. Moreover, the “Fecal recovery, change by LAB treatment” value in data set [4] was “significantly decreased”. For the same compound, the “Alteration of ginsenoside” value in data set [5] is given as “most significant decrease”.

For `CC(C)=CCC[C@](C)(O[C@@H]1O[C@H](CO)[C@@H](O)[C@H](O)[C@H]1O)[C@H]1CC[C@]2(C)[C@@H]1[C@H](O)C[C@@H]1[C@@]3(C)CC[C@H](O)C(C)(C)[C@@H]3[C@@H](O[C@@H]3O[C@H](CO)[C@@H](O)[C@H](O)[C@H]3O[C@@H]3O[C@@H](C)[C@H](O)[C@@H](O)[C@H]3O)C[C@]12C` [GRe], in data set [1], the “Metabolite formation on incubation” value is reported as “produced GRh1”. In data set [2], the “Fecal recovery, change by the amoxicillin treatment” value is on record as “increased” and the “Ginsenosides identified in urine” value is listed as “identified in urine”. For the same compound, the “Fecal recovery, change by LAB treatment” value in data set [4] is on record as “significantly decreased”. Besides, the “Alteration of ginsenoside” value in data set [5] was “most significant decrease”.

For `CC(C)=CCC[C@](C)(O)[C@H]1CC[C@]2(C)[C@@H]1[C@H](O)C[C@@H]1[C@@]3(C)CC[C@H](O)C(C)(C)[C@@H]3[C@@H](O[C@@H]3O[C@H](CO)[C@@H](O)[C@H](O)[C@H]3O[C@@H]3O[C@H](CO)[C@@H](O)[C@H](O)[C@H]3O)C[C@]12C` [GRf], the “Metabolite formation on incubation” value in data set [1] is “produced GRh1”. The “Fecal recovery, change by the amoxicillin treatment” value in data set [2] was “increased”. Further, in data set [4], the “Fecal recovery, change by LAB treatment” value is “significantly decreased”. Moreover, the “Alteration of ginsenoside” value in data set [5] is recorded as “gradual decrease”.

As to `CC(C)=CCC[C@](C)(O[C@@H]1O[C@H](CO)[C@@H](O)[C@H](O)[C@H]1O)[C@H]1CC[C@]2(C)[C@@H]1[C@H](O)C[C@@H]1[C@@]3(C)CC[C@H](O)C(C)(C)[C@@H]3[C@@H](O[C@@H]3O[C@H](CO)[C@@H](O)[C@H](O)[C@H]3O)C[C@]12C` [GRg1], the “Metabolite formation on incubation” value in data set [1] is on record as “produced GRh1”. For the same compound, in data set [2], the “Fecal recovery, change by the amoxicillin treatment” value is listed as “increased” and the “Ginsenosides identified in urine” value was “identified in urine”. In addition, in data set [4], the “Fecal recovery, change by LAB treatment” value is on record as “significantly decreased”. Further, the “Alteration of ginsenoside” value in data set [5] was “gradual decrease”.
